Results from patent publication US10167262B2, “Herbicidal substituted 3-arylpyrazoles” (FMC CORPORATION, priority 2014, dated 2019).

Experiments:
Assay in all cases: Test A pre-/postemergence greenhouse herbicide test, visual injury rating 0-100
Format in all cases: in vivo
Conditions in all cases: 1000 g ai/ha
[1] = tested on: wheat (Triticum aestivum)
Source text: (§1) Seeds of plant species selected from barnyardgrass (Echinochloa crus-galli), large (Lg) crabgrass (Digitaria sanguinalis), giant foxtail (Setaria faberii), morningglory (Ipomoea spp.), pigweed (Amaranthus retroflexus), velvetleaf (Abutilon theophrasti), wheat (Triticum aestivum), and corn (Zea mays) were planted into a blend of loam soil and sand and treated preemergence with a directed soil spray using test chemicals formulated in a non-phytotoxic solvent mixture which included a surfactant. At the same time these species were also treated with postemergence applications of test chemicals formulated in the same manner. Plants ranged in height from 2 to 10 cm and were in the one- to two-leaf stage for the postemergence treatment. Treated plants and untreated controls were maintained in a greenhouse for approximately 10 days, after which time all treated plants were compared to untreated controls and visually evaluated for injury. Plant response ratings, summarized in Table A, are based on a 0 to 100 scale where 0 is no effect and 100 is complete control. A dash (-) response means no test result.

[2] = tested on: pigweed (Amaranthus retroflexus)
Source text: as §1

[3] = tested on: giant foxtail (Setaria faberii)
Source text: as §1

[4] = tested on: barnyardgrass (Echinochloa crus-galli)
Source text: as §1

corn (Zea mays) = tested on: corn (Zea mays)
Source text: as §1

[5] = tested on: morningglory (Ipomoea spp.)
Source text: as §1

[6] = tested on: velvetleaf (Abutilon theophrasti)
Source text: as §1

[7] = tested on: large (Lg) crabgrass (Digitaria sanguinalis)
Source text: as §1

Compound | Plant response rating (0 to 100 scale), Wheat ([1]; Postemergence) | Plant response rating (0 to 100 scale), Wheat ([1]; Preemergence) | Plant response rating (0 to 100 scale), Pigweed ([2]; Postemergence) | Plant response rating (0 to 100 scale), Pigweed ([2]; Preemergence) | Plant response rating (0 to 100 scale), Foxtail, Giant ([3]; Postemergence) | Plant response rating (0 to 100 scale), Foxtail, Giant ([3]; Preemergence) | Plant response rating (0 to 100 scale), Barnyardgrass ([4]; Postemergence) | Plant response rating (0 to 100 scale), Barnyardgrass ([4]; Preemergence) | Plant response rating (0 to 100 scale), Corn (corn (Zea mays); Postemergence) | Plant response rating (0 to 100 scale), Corn (corn (Zea mays); Preemergence) | Plant response rating (0 to 100 scale), Morningglory ([5]; Postemergence) | Plant response rating (0 to 100 scale), Morningglory ([5]; Preemergence) | Plant response rating (0 to 100 scale), Velvetleaf ([6]; Postemergence) | Plant response rating (0 to 100 scale), Velvetleaf ([6]; Preemergence) | Plant response rating (0 to 100 scale), Crabgrass, Large ([7]; Postemergence) | Plant response rating (0 to 100 scale), Crabgrass, Large ([7]; Preemergence)
ON=C(c1ccccc1)c1c[nH]nc1-c1cc(Br)cc(Br)c1 [Compound 49] | 0 | 0 | 90 | 80 | 0 | 10 | 0 | 0 | 0 | 0 | 0 | 0 | 80 | 0 | 0 | 0
Brc1cc(Br)cc(-c2n[nH]cc2C2(c3ccccc3)SCCS2)c1 [Compound 62] | 0 | 0 | 100 | 80 | 0 | 0 | 0 | 0 | 0 | 0 | – | – | 90 | 60 | 0 | 0
CON=C(c1ccccc1)c1c[nH]nc1-c1cc(Cl)cc(Cl)c1 [Compound 64] | 0 | 0 | 80 | 0 | 0 | 0 | 0 | 0 | 0 | 0 | 0 | 0 | 80 | 0 | 0 | 0
